# According to patent US7803955B2, “Method for preparing 2,5,7,8-tetramethyl-2-(2′-carboxyethyl)-6-acetoxychroman-precursor- α-CEHC precursor” (Institut Neftekhimii I Kataliza Ran, priority 2005, dated 2010):
# How the values were obtained:
# [1] = various model oxidative reactions; compared with α-tocopherol, ascorbic acid, Trolox; cited from earlier work
# [2] = ratio to α-tocopherol; cited from earlier work
# [3] = unlike the known diuretics; cited from earlier work
smiles,measurement,setting,value
"CC(=O)Oc1c(C)c(C)c2c(c1C)CCC(C)(CCC(=O)O)O2 (stereo not shown) [(V), 2,5,7,8-tetramethyl-2-(2′-carboxyethyl)-6-acetoxychroman]",melting point,,149 to 150 °C
"Cc1c(C)c2c(c(C)c1O)CCC(C)(CCC(=O)O)O2 (stereo not shown) [acid (II), 2,5,7,8-tetramethyl-2-(2′-carboxyethyl)-6-hydroxychroman]",antioxidant activity in vitro,[1],"high antioxidant properties comparable with such known preparations as α-tocopherol, ascorbic acid, and the cardioprotective agent Trolox"
CC(=O)Oc1c(C)c(C)c2c(c1C)CCC(C)(CCC[C@H](C)CCC[C@H](C)CCCC(C)C)O2 (stereo partly drawn) [α-tocopheryl acetate],vitamin activity relative to non-acetylated α-tocopherol,[2],1.47 times
Cc1c(O)cc2c(c1C)OC(C)(CCC(=O)O)CC2 (stereo not shown) [γ-CEHC],excretion of sodium ions / potassium ions,[3],exclusively selectively promotes the excretion of sodium ions without affecting potassium ions
